Reference: US20170066717A1, “NEW PHENYLAZETIDINECARBOXYLATE OR -CARBOXAMIDE COMPOUNDS” (INVENTIVA, priority 2014, published 2017)

Columns and labels:
[1] = target: T1, NURR-1/RXRα (Homo sapiens, UniProt P19793); assay: Transactivation test, NURR-1-Gal4/RXRα, luciferase reporter in Cos-7 cells; assay type: cell-based; conditions: for Emax: COS-7, induction level relative to reference XCT0135908 at 2×10^−5 M (=100%), read-out: hNurr1_RXRaFL Emax (%); for EC50: Cos-7 cells, NURR-1-Gal4/RXRα, luciferase reporter, read-out: hNurr1_RXRaFL EC50
T1 construct: expressed in transfected cells; host or cells: Cos-7 cells
T1 sequence (P19793 whole entry, the tested form may be a part): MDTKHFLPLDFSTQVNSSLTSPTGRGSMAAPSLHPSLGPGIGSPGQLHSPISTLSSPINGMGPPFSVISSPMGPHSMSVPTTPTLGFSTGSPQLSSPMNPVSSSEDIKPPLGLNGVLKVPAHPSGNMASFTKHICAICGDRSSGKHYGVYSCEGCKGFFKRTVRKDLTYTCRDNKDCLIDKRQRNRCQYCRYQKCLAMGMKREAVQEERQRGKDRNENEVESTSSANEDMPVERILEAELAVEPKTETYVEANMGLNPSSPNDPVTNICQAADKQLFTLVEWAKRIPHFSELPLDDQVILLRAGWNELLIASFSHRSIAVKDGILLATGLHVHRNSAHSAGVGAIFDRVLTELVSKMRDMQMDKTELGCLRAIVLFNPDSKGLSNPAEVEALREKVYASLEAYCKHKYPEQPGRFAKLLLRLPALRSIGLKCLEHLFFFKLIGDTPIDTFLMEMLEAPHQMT
T1 sequence (P43354 whole entry partner, the tested form may be a part): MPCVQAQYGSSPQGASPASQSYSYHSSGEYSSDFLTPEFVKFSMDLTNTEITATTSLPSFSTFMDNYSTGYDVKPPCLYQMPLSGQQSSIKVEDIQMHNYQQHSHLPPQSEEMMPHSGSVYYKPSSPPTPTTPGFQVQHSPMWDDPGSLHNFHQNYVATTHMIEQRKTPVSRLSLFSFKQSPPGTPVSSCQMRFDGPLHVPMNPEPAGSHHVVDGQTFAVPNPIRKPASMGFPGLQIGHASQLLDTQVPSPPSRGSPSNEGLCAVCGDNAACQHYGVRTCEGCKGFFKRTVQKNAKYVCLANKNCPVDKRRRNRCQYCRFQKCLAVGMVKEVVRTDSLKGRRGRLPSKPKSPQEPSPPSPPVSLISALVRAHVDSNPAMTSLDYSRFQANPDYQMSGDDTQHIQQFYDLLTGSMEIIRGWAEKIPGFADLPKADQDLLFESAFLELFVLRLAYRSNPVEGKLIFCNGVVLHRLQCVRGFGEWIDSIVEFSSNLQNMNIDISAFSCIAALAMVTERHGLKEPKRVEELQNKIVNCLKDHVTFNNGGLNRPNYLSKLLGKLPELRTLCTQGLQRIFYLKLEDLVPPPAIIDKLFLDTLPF
T1 sequence (P04386 1-147 partner limits assumed): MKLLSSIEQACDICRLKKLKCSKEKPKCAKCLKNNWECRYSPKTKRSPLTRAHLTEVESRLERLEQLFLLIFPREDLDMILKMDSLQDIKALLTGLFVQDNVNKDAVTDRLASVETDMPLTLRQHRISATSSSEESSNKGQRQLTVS

[2] = target: T2, NURR-1/RXRγ (Homo sapiens, UniProt P48443); assay: Transactivation test, NURR-1-Gal4/RXRγ, luciferase reporter in Cos-7 cells; assay type: cell-based; conditions: for Emax: COS-7, induction level relative to reference XCT0135908 at 2×10^−5 M (=100%), read-out: hNurr1_RXRgFL Emax (%); for EC50: Cos-7 cells, NURR-1-Gal4/RXRγ, luciferase reporter, read-out: hNurr1_RXRgFL EC50
T2 construct: expressed in transfected cells; host or cells: Cos-7 cells
T2 sequence (P48443 whole entry, the tested form may be a part): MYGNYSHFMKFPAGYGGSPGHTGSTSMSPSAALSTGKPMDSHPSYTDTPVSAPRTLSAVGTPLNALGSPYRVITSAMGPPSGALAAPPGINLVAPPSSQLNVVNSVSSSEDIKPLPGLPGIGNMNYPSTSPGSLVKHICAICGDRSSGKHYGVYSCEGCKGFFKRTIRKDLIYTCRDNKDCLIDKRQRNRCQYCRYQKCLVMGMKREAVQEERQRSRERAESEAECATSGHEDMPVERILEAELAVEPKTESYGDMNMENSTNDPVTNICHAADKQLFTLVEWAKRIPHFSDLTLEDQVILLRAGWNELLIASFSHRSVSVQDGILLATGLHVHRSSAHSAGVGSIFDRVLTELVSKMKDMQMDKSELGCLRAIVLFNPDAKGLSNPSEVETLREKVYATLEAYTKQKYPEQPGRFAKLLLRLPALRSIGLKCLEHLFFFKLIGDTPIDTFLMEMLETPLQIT
T2 sequence (P43354 whole entry partner, the tested form may be a part): as the sequence (P43354 whole entry partner, the tested form may be a part) above
T2 sequence (P04386 1-147 partner limits assumed): as the sequence (P04386 1-147 partner limits assumed) above

SMILES | Emax [1] [%] | EC50 [1] [nM] | Emax [2] [%] | EC50 [2] [nM]
Cc1cc(N2CC(C)(C(=O)O)C2)cc(-n2cc(C)c3cc(C(F)(F)F)ccc32)c1 [Example 55, 3-methyl-1-[3-methyl-5-[3-methyl-5-(trifluoromethyl)indol-1-yl]phenyl]azetidine-3-carboxylic acid] | 80 | 189 | 73 | 218
CCCC1CNc2c(cc(C(F)(F)F)cc2-c2cccc(N3CC(C(=O)O)C3)c2)O1 (centres unmarked) [Example 67, 1-[3-[2-propyl-7-(trifluoromethyl)-3,4-dihydro-2H-1,4-benzoxazin-5-yl]phenyl]azetidine-3-carboxylic acid] | 67 | 25 | 82 | 28
CCCOc1ccc(C(F)(F)F)cc1-c1cccc(N2CC(C(=O)O)C2)c1 [Example 88, 1-[3-[2-propoxy-5-(trifluromethyl)phenyl]phenyl]azetidine-3-carboxylic acid] | 69 | 60 | 80 | 73
O=C(O)C1CN(c2cccc(-c3cc4ccccc4c(Cl)n3)c2)C1 [Example 37, 1-[3-(1-chloro-3-isoquinoyl)phenyl]azetidine-3-carboxylic acid] | 62 | > 5000 | 99 | 3820
COc1ccc2c(c1)c(C)cn2-c1cc(C)cc(N2CC(C(=O)O)C2)c1 [Example 48, 1-[3-(5-methoxy-3-methylindol-1-yl)-5-methylphenyl]azetidine-3-carboxylic acid] | 96 | 37 | 129 | 123
Cc1cn(-c2cc(N3CC(C(=O)O)C3)cc(C(C)(C)C)c2)c2ccc(C(F)(F)F)cc12 [Example 56, 1-[3-tert-butyl-5-[3-methyl-5-(trifluoromethyl)indol-1-yl]phenyl]azetidine-3-carboxylic acid] | 46 | > 5000 | 38 | 1080
Cc1cn(-c2cccc(N3CC(C(=O)NC(C)(C)C)C3)c2)c2ccc(C(F)(F)F)cc12 [Example 171, N-tert-butyl-1-[3-[3-methyl-5-(tirfluoromethyl)indol-1-yl]phenyl]azetidine-3-carboxamide] | 111 | 73 | 114 | 335
Cc1cc(-c2cccc(C(C)C)c2)cc(N2CC(C(=O)O)C2)c1 [Example 3, 1-[3-(3-isopropylphenyl)-5-methylphenyl]azetidine-3-carboxylate acid] | 101 | 13 | 97 | 16
O=C(O)C1CN(c2cccc(-c3cnc(Cl)c(C(F)(F)F)c3)c2)C1 [Example 77, 1-[3-[6-chloro-5-(trifluoromethyl)-3-pyridyl]phenyl]azetidine-3-carboxylic acid] | 67 | 423 | 105 | 1200
Cc1cc(-c2cccc(OC(F)F)c2)cc(N2CC(C(=O)O)C2)c1 [Example 5, 1-[3-[3-(difluoromethoxy)phenyl]-5-methylphenyl]azetidine-3-carboxylic acid] | 124 | 47 | 115 | 93
O=C(O)C1CN(c2cccc(-c3cc(C(F)(F)F)ccc3OCc3ccc(F)cc3)c2)C1 [Example 99, 1-[3-[2-[(4-fluorophenyl),ethoxy]-5-(trifluroomethyl)phenyl]phenyl]azetidine-3-carboxylic acid] | 56 | 17 | 51 | 19
O=C(O)C1CN(c2cccc(-c3cc(F)cc(C(F)(F)F)c3)c2)C1 [Example 13, 1-[3-[3-fluoro-5-(trifluoromethyl)phenyl]phenyl]azetidine-3-carboxylic acid] | 105 | 32 | 102 | 116
Cc1cc(-c2cccc3c2OC(F)(F)O3)cc(N2CC(C(=O)O)C2)c1 [Example 25, 1-[3-(2,2-difluoro-1,3-benzodioxal-4-yl)-5-methylphenyl]azetidine-3-carboxylic acid] | 99 | 19 | 109 | 50
O=C(O)C1CN(c2cccc(-c3cc(C(F)(F)F)ccc3OCc3ccsc3)c2)C1 [Example 111, 1-[3-[2-(3-thienylmethoxy)-5-(trifluoromethyl)phenyl]phenyl]azetidine-3-carboxylic acid] | 94 | 8 | 94 | 15
O=C(O)C1CN(c2cccc(-c3cc(OC(F)(F)F)cc4cccnc34)c2)C1 [Example 83, 1-[3-[6-(trifluoromethoxy)-8-quinolyl]phenyl]azetidine-3-carboxylic acid] | 67 | 282 | 68 | 596
COCCOc1ccc(C(F)(F)F)cc1-c1cccc(N2CC(C(=O)O)C2)c1 [Example 102, 1-[3-[2-(2-methoxyethoxy)-5-(trifluoromethyl)phenyl]phenyl]azetidine-3-carboxylic acid] | 97 | 159 | 94 | 125
Cc1cn(-c2cc(OC(C)C)cc(N3CC(C(=O)O)C3)c2)c2ccc(C(F)(F)F)cc12 [Example 54, 1-[3-isopropoxy-5-[3-methyl-5-(trifloruomethyl)indol-1-yl]phenyl]azetidine-3-carboxylic acid] | 76 | 1400 | 100 | 2240
Cc1cn(-c2cccc(N3CC(C(=O)NCCCN4CCNCC4)C3)c2)c2ccc(C(F)(F)F)cc12 [Example 164, 1-[3-[3-methyl-5-(trifluoromethyl)indol-1-yl]phenyl]-N-(3-piperazia-1-ylpropyl)azetidine-3-carboxamide] | 85 | 723 | 88 | 1650
Cc1cc(N2CC(C(=O)O)C2)cc(-n2cc(C)c3cc(Cl)ccc32)c1 [Example 45] | 96 | 2 | 107 | 3
CCC(C)Oc1ccc(C(F)(F)F)cc1-c1cccc(N2CC(C(=O)O)C2)c1 (centres unmarked) [Example 105, 1-[3-[2-sec-butoxy-5-(trifluoromethyl)phenyl]phenyl]azetidine-3-carboxylic acid] | 56 | 10 | 55 | 19
COCCCNC(=O)C1CN(c2cccc(-n3cc(C)c4cc(C(F)(F)F)ccc43)c2)C1 [Example 172, N-(3-methoxvpypropyl)-1-[3-[3-methyl-5-(trifluoromethyl)indol-1-yl]phenyl]azetidine-3-carboxamide] | 104 | < 1 | 114 | 5
O=C(O)C1CN(c2cccc(-n3ccc4cc(C(F)(F)F)ccc43)c2)C1 [Example 44, 1-[3-[5-(trifluoromethyl)indol-1-yl]phenyl]azetidine-3-carboxylic acid] | 108 | 7 | 108 | 8
COc1cccc(COc2ccc(C(F)(F)F)cc2-c2cccc(N3CC(C(=O)O)C3)c2)c1 [Example 92, 1-[3-[2-[(3-methoxyphenyl)methoxy]-5-(trifluoromethyl)phenyl]phenyl]azetidine-3-carboxylic acid] | 59 | 29 | 36 | 93
